Data reported in US6737383B1, “Herbicidal oxadiazolidines” (priority 1999, dated 2004).

Tests used:
bedstraw = assay: Test B pre/postemergence bedstraw; format: in vivo, Galium aparine
Outline: (§1)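 Test chemicals in a non-phytotoxic solvent mixture with surfactant were sprayed preemergence onto planted seeds and postemergence onto plants 2 to 18 cm tall (1- to 4-leaf stage). After twelve to sixteen days in a greenhouse, injury was visually rated against untreated controls from 0 (no effect) to 10 (complete control).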

blackgrass = assay: Test B pre/postemergence blackgrass; format: in vivo, Alopecurus myosuroides
Outline: as §1

surinam grass = assay: Test B pre/postemergence surinam grass; format: in vivo, Brachiaria decumbens
Outline: as §1

cocklebur = assay: Test B pre/postemergence cocklebur; format: in vivo, Xanthium strumarium
Outline: as §1

corn = assay: Test B pre/postemergence corn; format: in vivo, Zea mays
Outline: as §1

crabgrass = assay: Test B pre/postemergence crabgrass; format: in vivo, Digitaria sanguinalis
Outline: as §1

giant foxtail = assay: Test B pre/postemergence giant foxtail; format: in vivo, Setaria faberii
Outline: as §1

morningglory = assay: Test B pre/postemergence morningglory; format: in vivo, Ipomoea hederacea
Outline: as §1

pigweed = assay: Test B pre/postemergence pigweed; format: in vivo, Amaranthus retroflexus
Outline: as §1

rape = assay: Test B pre/postemergence rape; format: in vivo, Brassica napus
Outline: as §1

soybean = assay: Test B pre/postemergence soybean; format: in vivo, Glycine max
Outline: as §1

sugar beet = assay: Test B pre/postemergence sugar beet; format: in vivo, Beta vulgaris
Outline: as §1

velvetleaf = assay: Test B pre/postemergence velvetleaf; format: in vivo, Abutilon theophrasti
Outline: as §1

wheat = assay: Test B pre/postemergence wheat; format: in vivo, Triticum aestivum
Outline: as §1

wild oat = assay: Test B pre/postemergence wild oat; format: in vivo, Avena fatua
Outline: as §1

purple nutsedge = assay: Test B pre/postemergence purple nutsedge; format: in vivo, Cyperus rotundus
Outline: as §1

[1] = Postemergence, Rate 125 g/ha, scale of 0 to 10 where 0 is no effect and 10 is complete control
[2] = Preemergence, Rate 125 g/ha, scale of 0 to 10 where 0 is no effect and 10 is complete control
[3] = Preemergence, Rate 250 g/ha, scale 0 (no effect) to 10 (complete control)
[4] = Rate 62 g/ha, Preemergence, scale 0 to 10
[5] = Rate 250 g/ha, Postemergence, scale 0 to 10, 0 is no effect, 10 is complete control
[6] = Rate 500 g/ha, Preemergence, scale 0 to 10 (0 no effect, 10 complete control)
[7] = Postemergence, Rate 62 g/ha, scale 0 to 10, 0 is no effect, 10 is complete control
[8] = Rate 500 g/ha, Postemergence, scale 0 to 10, 0 is no effect, 10 is complete control

SMILES: C#CCn1c(=O)on(C(=O)N(c2ccccc2)C(C)C)c1=O [Compound 754]
- Bedstraw plant response rating (bedstraw; [1]): 0
- Plant response rating, Bedstraw (bedstraw; [2]): 0
- Bedstraw plant response rating (bedstraw; [3]): 0
- Bedstraw plant response rating (bedstraw; [4]): 0
- Bedstraw plant response rating (bedstraw; [5]): 0
- Bedstraw plant response rating (bedstraw; [6]): 0
- Plant response rating, Blackgrass (blackgrass; [7]): 2
- Blackgrass plant response rating (blackgrass; [1]): 4
- Plant response rating, Blackgrass (blackgrass; [2]): 9
- Blackgrass plant response rating (blackgrass; [3]): 9
- Blackgrass plant response rating (blackgrass; [4]): 7
- Blackgrass plant response rating (blackgrass; [5]): 5
- Blackgrass plant response rating (blackgrass; [8]): 5
- Blackgrass plant response rating (blackgrass; [6]): 9
- Plant response rating, B. signalgrass (surinam grass; [7]): 0
- B. signalgrass plant response rating (surinam grass; [1]): 2
- B. signalgrass plant response rating (surinam grass; Preemergence, Rate 62 g/ha, scale of 0 to 10 where 0 is no effect and 10 is complete control): 3
- Plant response rating, B. signalgrass (surinam grass; [2]): 3
- B. signalgrass plant response rating (surinam grass; [3]): 8
- B. signalgrass plant response rating (surinam grass; [5]): 6
- B. signalgrass plant response rating (surinam grass; [8]): 8
- B. signalgrass plant response rating (surinam grass; [6]): 9
- Plant response rating, Cocklebur (cocklebur; [7]): 0
- Cocklebur plant response rating (cocklebur; [1]): 0
- Plant response rating, Cocklebur (cocklebur; [2]): 0
- Cocklebur plant response rating (cocklebur; [3]): 0
- Cocklebur plant response rating (cocklebur; [4]): 0
- Cocklebur plant response rating (cocklebur; [5]): 0
- Cocklebur plant response rating (cocklebur; [8]): 0
- Cocklebur plant response rating (cocklebur; [6]): 0
- Plant response rating, Corn (corn; [7]): 0
- Corn plant response rating (corn; [1]): 0
- Plant response rating, Corn (corn; [2]): 0
- Corn plant response rating (corn; [3]): 0
- Corn plant response rating (corn; [4]): 0
- Corn plant response rating (corn; [5]): 2
- Corn plant response rating (corn; [8]): 5
- Corn plant response rating (corn; [6]): 0
- Plant response rating, Crabgrass (crabgrass; [7]): 5
- Crabgrass plant response rating (crabgrass; [1]): 5
- Plant response rating, Crabgrass (crabgrass; [2]): 9
- Crabgrass plant response rating (crabgrass; [3]): 9
- Crabgrass plant response rating (crabgrass; [4]): 8
- Crabgrass plant response rating (crabgrass; [5]): 9
- Crabgrass plant response rating (crabgrass; [8]): 9
- Crabgrass plant response rating (crabgrass; [6]): 9
- Plant response rating, Giant foxtail (giant foxtail; [7]): 4
- Giant foxtail plant response rating (giant foxtail; [1]): 8
- Plant response rating, Giant foxtail (giant foxtail; [2]): 9
- Giant foxtail plant response rating (giant foxtail; [3]): 9
- Giant foxtail plant response rating (giant foxtail; [4]): 8
- Giant foxtail plant response rating (giant foxtail; [5]): 8
- Giant foxtail plant response rating (giant foxtail; [8]): 8
- Giant foxtail plant response rating (giant foxtail; [6]): 9
- Plant response rating, Morningglory (morningglory; [7]): 10
- Morningglory plant response rating (morningglory; [1]): 10
- Plant response rating, Morningglory (morningglory; [2]): 0
- Morningglory plant response rating (morningglory; [3]): 1
- Morningglory plant response rating (morningglory; [4]): 0
- Morningglory plant response rating (morningglory; [5]): 10
- Morningglory plant response rating (morningglory; [8]): 10
- Morningglory plant response rating (morningglory; [6]): 1
- Redroot pigweed plant response rating (pigweed; [1]): 0
- Plant response rating, Redroot pigweed (pigweed; [2]): 8
- Redroot pigweed plant response rating (pigweed; [3]): 9
- Redroot pigweed plant response rating (pigweed; [4]): 8
- Redroot pigweed plant response rating (pigweed; [5]): 0
- Redroot pigweed plant response rating (pigweed; [6]): 9
- Plant response rating, Rape (rape; [7]): 0
- Rape plant response rating (rape; [1]): 0
- Plant response rating, Rape (rape; [2]): 4
- Rape plant response rating (rape; [3]): 6
- Rape plant response rating (rape; [4]): 0
- Rape plant response rating (rape; [5]): 0
- Rape plant response rating (rape; [8]): 0
- Rape plant response rating (rape; [6]): 8
- Plant response rating, Soybean (soybean; [7]): 0
- Plant response rating, Soybean (soybean; [2]): 0
- Soybean plant response rating (soybean; [3]): 0
- Soybean plant response rating (soybean; [4]): 0
- Soybean plant response rating (soybean; [5]): 2
- Soybean plant response rating (soybean; [8]): 2
- Soybean plant response rating (soybean; [6]): 0
- Plant response rating, Sugarbeets (sugar beet; [7]): 0
- Plant response rating, Sugarbeets (sugar beet; [2]): 0
- Sugarbeets plant response rating (sugar beet; [3]): 3
- Sugarbeets plant response rating (sugar beet; [4]): 0
- Sugarbeets plant response rating (sugar beet; [5]): 0
- Sugarbeets plant response rating (sugar beet; [8]): 3
- Sugarbeets plant response rating (sugar beet; [6]): 7
- Plant response rating, Velvetleaf (velvetleaf; [7]): 0
- Plant response rating, Velvetleaf (velvetleaf; [2]): 1
- Velvetleaf plant response rating (velvetleaf; [3]): 3
- Velvetleaf plant response rating (velvetleaf; [4]): 0
- Velvetleaf plant response rating (velvetleaf; [5]): 0
- Velvetleaf plant response rating (velvetleaf; [8]): 0
- Velvetleaf plant response rating (velvetleaf; [6]): 5
- Plant response rating, Wheat (wheat; [7]): 0
- Plant response rating, Wheat (wheat; [2]): 3
- Wheat plant response rating (wheat; [3]): 7
- Wheat plant response rating (wheat; [4]): 0
- Wheat plant response rating (wheat; [5]): 5
- Wheat plant response rating (wheat; [8]): 5
- Wheat plant response rating (wheat; [6]): 9
- Plant response rating, Wild oats (wild oat; [7]): 0
- Plant response rating, Wild oats (wild oat; [2]): 6
- Wild oats plant response rating (wild oat; [3]): 8
- Wild oats plant response rating (wild oat; [4]): 0
- Wild oats plant response rating (wild oat; [5]): 0
- Wild oats plant response rating (wild oat; [8]): 0
- Wild oats plant response rating (wild oat; [6]): 9
- Plant response rating, Nutsedge (purple nutsedge; [7]): 0
- Nutsedge plant response rating (purple nutsedge; [1]): 0
- Plant response rating, Nutsedge (purple nutsedge; [2]): 3
- Nutsedge plant response rating (purple nutsedge; [3]): 3
- Nutsedge plant response rating (purple nutsedge; [4]): 3
- Nutsedge plant response rating (purple nutsedge; [8]): 0
- Nutsedge plant response rating (purple nutsedge; [6]): 10
